# According to the supplement of paper PMC11451515:
# Test system: P12-Ichikawa
# Test: cell viability relative to DMSO control; higher = less cytotoxic
# Details: 48 h
# Method in brief: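 NOMO1 or SEM cells were plated at 500 cells/well and P12-Ichikawa cells at 1000 cells/well in 1536-well plates (5 μl), after each leukemia line had been adapted for at least four passages in each medium. Pin dosing delivered library compounds in DMSO at 11 threefold concentrations, 47 μM to 0.79 nM. CellTiter-Glo One luminescence was read after 48 h at 37°C. Viability is reported as a per-plate percentage of DMSO wells, with cell-free wells as background.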
# [1] = HPLM + 10% dialyzed FBS, 0.000781 µM
# [2] = HPLM + 10% dialyzed FBS, 0.00234 µM
# [3] = HPLM + 10% dialyzed FBS, 0.00702 µM
# [4] = HPLM + 10% dialyzed FBS, 0.0211 µM
# [5] = HPLM + 10% dialyzed FBS, 0.0632 µM
# [6] = HPLM + 10% dialyzed FBS, 0.19 µM
# [7] = HPLM + 10% dialyzed FBS, 0.569 µM
# [8] = HPLM + 10% dialyzed FBS, 1.71 µM
# [9] = HPLM + 10% dialyzed FBS, 5.12 µM
# [10] = HPLM + 10% dialyzed FBS, 15.4 µM
# [11] = HPLM + 10% dialyzed FBS, 46.1 µM
# [12] = RPMI 5 mM glucose + 10% FBS, 0.000781 µM
# [13] = RPMI 5 mM glucose + 10% FBS, 0.00234 µM
# [14] = RPMI 5 mM glucose + 10% FBS, 0.00702 µM
# [15] = RPMI 5 mM glucose + 10% FBS, 0.0211 µM
# [16] = RPMI 5 mM glucose + 10% FBS, 0.0632 µM
# [17] = RPMI 5 mM glucose + 10% FBS, 0.19 µM
# [18] = RPMI 5 mM glucose + 10% FBS, 0.569 µM
# [19] = RPMI 5 mM glucose + 10% FBS, 1.71 µM
# [20] = RPMI 5 mM glucose + 10% FBS, 5.12 µM
# [21] = RPMI 5 mM glucose + 10% FBS, 15.4 µM
# [22] = RPMI 5 mM glucose + 10% FBS, 46.1 µM
# [23] = RPMI 5 mM glucose + 10% dialyzed FBS, 0.000781 µM
# [24] = RPMI 5 mM glucose + 10% dialyzed FBS, 0.00234 µM
# [25] = RPMI 5 mM glucose + 10% dialyzed FBS, 0.00702 µM
# [26] = RPMI 5 mM glucose + 10% dialyzed FBS, 0.0211 µM
# [27] = RPMI 5 mM glucose + 10% dialyzed FBS, 0.0632 µM
# [28] = RPMI 5 mM glucose + 10% dialyzed FBS, 0.19 µM
# [29] = RPMI 5 mM glucose + 10% dialyzed FBS, 0.569 µM
# [30] = RPMI 5 mM glucose + 10% dialyzed FBS, 1.71 µM
# [31] = RPMI 5 mM glucose + 10% dialyzed FBS, 5.12 µM
# [32] = RPMI 5 mM glucose + 10% dialyzed FBS, 15.4 µM
# [33] = RPMI 5 mM glucose + 10% dialyzed FBS, 46.1 µM
SMILES,cell viability [1] [%],cell viability [2] [%],cell viability [3] [%],cell viability [4] [%],cell viability [5] [%],cell viability [6] [%],cell viability [7] [%],cell viability [8] [%],cell viability [9] [%],cell viability [10] [%],cell viability [11] [%],cell viability [12] [%],cell viability [13] [%],cell viability [14] [%],cell viability [15] [%],cell viability [16] [%],cell viability [17] [%],cell viability [18] [%],cell viability [19] [%],cell viability [20] [%],cell viability [21] [%],cell viability [22] [%],cell viability [23] [%],cell viability [24] [%],cell viability [25] [%],cell viability [26] [%],cell viability [27] [%],cell viability [28] [%],cell viability [29] [%],cell viability [30] [%],cell viability [31] [%],cell viability [32] [%],cell viability [33] [%]
Cn1cnc2c(F)c(Nc3ccc(Br)cc3F)c(C(=O)NOCCO)cc21,88.4,101,96.6,11.1,102,91.9,91,85.7,87.2,86.3,81.2,84.5,92.6,96.7,13.6,92.3,82.7,80.1,78.2,75.5,74.2,73.1,91,98,101,26.2,97,93.5,83.8,89.1,91.8,86.6,81.4
C[C@]12CC[C@H]3[C@@H](CC[C@H]4NC(=O)\C=C/[C@]34C)[C@@H]1CC[C@@H]2C(=O)NC5=CC(=CC=C5C(F)(F)F)C(F)(F)F,109,112,112,111,115,111,102,104,91.3,107,102,117,108,114,108,111,117,110,105,107,103,104,104,111,109,108,117,99.2,99.3,98.4,96.7,106,97.5
COc1ccccc1OCC(O)COC(N)=O (stereo not given),88.2,107,103,109,109,107,111,117,111,112,58.1,112,118,117,114,120,118,124,106,118,126,125,93.1,105,101,107,110,103,110,101,113,117,106
O=C(O)C1(Cc2cccc(Nc3nccs3)n2)CCC(Oc2cccc(Cl)c2F)CC1 (stereo not given),102,111,112,108,115,114,99.5,57.8,39.4,18.8,13.7,102,116,108,93.8,122,111,108,65.8,47.1,33.9,17.3,108,116,118,116,116,117,115,68.9,65.2,33.5,31.8
NNCCc1ccccc1,116,123,118,115,118,116,115,113,113,106,95.3,120,115,120,117,110,119,129,128,109,106,91.9,109,116,116,110,123,111,112,116,113,107,96.9
